Data published in article PMC12489660, “Multitargeted Caffeic Acid Derivatives Inhibit Cardiac RyR2- and NaV1.5- Channels but Stimulate SERCA2a Pump Activity” (ACS Omega, 2025).
Values joined by “and” are separate entries in the source; they are usually repeats but may differ in a detail not shown here. Identical values can stand only once.

What was measured:
wild type mouse RyR2 = target: T1, wild type mouse RyR2 (Mus musculus, UniProt E9Q401); experiment: Time-lapse [Ca2+]ER assay in HEK-293 RyR2 R-CEPIA1er cells (RyR2 activity assay); type: cell-based; settings: 25 μM; for effect on RyR2 activity / [Ca2+]ER (in words): vs control 0.1 v/v% DMSO; for RyR2 activity: percentage from the control sample (100%), mean ± SEM;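 for all read-outs here: ER Ca2+ read as R-CEPIA1er fluorescence ratio F/F0 (F0 mean of initial 90 s, F mean of final 100 s), compared with vehicle-treated control wells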
T1 construct: expressed in transfected cells; host or cells: HEK-293 cells stably expressing WT RyR2 and R-CEPIA1er (gift of Dr. Takashi Murayama), induced with doxycycline
T1 sequence (E9Q401 whole entry): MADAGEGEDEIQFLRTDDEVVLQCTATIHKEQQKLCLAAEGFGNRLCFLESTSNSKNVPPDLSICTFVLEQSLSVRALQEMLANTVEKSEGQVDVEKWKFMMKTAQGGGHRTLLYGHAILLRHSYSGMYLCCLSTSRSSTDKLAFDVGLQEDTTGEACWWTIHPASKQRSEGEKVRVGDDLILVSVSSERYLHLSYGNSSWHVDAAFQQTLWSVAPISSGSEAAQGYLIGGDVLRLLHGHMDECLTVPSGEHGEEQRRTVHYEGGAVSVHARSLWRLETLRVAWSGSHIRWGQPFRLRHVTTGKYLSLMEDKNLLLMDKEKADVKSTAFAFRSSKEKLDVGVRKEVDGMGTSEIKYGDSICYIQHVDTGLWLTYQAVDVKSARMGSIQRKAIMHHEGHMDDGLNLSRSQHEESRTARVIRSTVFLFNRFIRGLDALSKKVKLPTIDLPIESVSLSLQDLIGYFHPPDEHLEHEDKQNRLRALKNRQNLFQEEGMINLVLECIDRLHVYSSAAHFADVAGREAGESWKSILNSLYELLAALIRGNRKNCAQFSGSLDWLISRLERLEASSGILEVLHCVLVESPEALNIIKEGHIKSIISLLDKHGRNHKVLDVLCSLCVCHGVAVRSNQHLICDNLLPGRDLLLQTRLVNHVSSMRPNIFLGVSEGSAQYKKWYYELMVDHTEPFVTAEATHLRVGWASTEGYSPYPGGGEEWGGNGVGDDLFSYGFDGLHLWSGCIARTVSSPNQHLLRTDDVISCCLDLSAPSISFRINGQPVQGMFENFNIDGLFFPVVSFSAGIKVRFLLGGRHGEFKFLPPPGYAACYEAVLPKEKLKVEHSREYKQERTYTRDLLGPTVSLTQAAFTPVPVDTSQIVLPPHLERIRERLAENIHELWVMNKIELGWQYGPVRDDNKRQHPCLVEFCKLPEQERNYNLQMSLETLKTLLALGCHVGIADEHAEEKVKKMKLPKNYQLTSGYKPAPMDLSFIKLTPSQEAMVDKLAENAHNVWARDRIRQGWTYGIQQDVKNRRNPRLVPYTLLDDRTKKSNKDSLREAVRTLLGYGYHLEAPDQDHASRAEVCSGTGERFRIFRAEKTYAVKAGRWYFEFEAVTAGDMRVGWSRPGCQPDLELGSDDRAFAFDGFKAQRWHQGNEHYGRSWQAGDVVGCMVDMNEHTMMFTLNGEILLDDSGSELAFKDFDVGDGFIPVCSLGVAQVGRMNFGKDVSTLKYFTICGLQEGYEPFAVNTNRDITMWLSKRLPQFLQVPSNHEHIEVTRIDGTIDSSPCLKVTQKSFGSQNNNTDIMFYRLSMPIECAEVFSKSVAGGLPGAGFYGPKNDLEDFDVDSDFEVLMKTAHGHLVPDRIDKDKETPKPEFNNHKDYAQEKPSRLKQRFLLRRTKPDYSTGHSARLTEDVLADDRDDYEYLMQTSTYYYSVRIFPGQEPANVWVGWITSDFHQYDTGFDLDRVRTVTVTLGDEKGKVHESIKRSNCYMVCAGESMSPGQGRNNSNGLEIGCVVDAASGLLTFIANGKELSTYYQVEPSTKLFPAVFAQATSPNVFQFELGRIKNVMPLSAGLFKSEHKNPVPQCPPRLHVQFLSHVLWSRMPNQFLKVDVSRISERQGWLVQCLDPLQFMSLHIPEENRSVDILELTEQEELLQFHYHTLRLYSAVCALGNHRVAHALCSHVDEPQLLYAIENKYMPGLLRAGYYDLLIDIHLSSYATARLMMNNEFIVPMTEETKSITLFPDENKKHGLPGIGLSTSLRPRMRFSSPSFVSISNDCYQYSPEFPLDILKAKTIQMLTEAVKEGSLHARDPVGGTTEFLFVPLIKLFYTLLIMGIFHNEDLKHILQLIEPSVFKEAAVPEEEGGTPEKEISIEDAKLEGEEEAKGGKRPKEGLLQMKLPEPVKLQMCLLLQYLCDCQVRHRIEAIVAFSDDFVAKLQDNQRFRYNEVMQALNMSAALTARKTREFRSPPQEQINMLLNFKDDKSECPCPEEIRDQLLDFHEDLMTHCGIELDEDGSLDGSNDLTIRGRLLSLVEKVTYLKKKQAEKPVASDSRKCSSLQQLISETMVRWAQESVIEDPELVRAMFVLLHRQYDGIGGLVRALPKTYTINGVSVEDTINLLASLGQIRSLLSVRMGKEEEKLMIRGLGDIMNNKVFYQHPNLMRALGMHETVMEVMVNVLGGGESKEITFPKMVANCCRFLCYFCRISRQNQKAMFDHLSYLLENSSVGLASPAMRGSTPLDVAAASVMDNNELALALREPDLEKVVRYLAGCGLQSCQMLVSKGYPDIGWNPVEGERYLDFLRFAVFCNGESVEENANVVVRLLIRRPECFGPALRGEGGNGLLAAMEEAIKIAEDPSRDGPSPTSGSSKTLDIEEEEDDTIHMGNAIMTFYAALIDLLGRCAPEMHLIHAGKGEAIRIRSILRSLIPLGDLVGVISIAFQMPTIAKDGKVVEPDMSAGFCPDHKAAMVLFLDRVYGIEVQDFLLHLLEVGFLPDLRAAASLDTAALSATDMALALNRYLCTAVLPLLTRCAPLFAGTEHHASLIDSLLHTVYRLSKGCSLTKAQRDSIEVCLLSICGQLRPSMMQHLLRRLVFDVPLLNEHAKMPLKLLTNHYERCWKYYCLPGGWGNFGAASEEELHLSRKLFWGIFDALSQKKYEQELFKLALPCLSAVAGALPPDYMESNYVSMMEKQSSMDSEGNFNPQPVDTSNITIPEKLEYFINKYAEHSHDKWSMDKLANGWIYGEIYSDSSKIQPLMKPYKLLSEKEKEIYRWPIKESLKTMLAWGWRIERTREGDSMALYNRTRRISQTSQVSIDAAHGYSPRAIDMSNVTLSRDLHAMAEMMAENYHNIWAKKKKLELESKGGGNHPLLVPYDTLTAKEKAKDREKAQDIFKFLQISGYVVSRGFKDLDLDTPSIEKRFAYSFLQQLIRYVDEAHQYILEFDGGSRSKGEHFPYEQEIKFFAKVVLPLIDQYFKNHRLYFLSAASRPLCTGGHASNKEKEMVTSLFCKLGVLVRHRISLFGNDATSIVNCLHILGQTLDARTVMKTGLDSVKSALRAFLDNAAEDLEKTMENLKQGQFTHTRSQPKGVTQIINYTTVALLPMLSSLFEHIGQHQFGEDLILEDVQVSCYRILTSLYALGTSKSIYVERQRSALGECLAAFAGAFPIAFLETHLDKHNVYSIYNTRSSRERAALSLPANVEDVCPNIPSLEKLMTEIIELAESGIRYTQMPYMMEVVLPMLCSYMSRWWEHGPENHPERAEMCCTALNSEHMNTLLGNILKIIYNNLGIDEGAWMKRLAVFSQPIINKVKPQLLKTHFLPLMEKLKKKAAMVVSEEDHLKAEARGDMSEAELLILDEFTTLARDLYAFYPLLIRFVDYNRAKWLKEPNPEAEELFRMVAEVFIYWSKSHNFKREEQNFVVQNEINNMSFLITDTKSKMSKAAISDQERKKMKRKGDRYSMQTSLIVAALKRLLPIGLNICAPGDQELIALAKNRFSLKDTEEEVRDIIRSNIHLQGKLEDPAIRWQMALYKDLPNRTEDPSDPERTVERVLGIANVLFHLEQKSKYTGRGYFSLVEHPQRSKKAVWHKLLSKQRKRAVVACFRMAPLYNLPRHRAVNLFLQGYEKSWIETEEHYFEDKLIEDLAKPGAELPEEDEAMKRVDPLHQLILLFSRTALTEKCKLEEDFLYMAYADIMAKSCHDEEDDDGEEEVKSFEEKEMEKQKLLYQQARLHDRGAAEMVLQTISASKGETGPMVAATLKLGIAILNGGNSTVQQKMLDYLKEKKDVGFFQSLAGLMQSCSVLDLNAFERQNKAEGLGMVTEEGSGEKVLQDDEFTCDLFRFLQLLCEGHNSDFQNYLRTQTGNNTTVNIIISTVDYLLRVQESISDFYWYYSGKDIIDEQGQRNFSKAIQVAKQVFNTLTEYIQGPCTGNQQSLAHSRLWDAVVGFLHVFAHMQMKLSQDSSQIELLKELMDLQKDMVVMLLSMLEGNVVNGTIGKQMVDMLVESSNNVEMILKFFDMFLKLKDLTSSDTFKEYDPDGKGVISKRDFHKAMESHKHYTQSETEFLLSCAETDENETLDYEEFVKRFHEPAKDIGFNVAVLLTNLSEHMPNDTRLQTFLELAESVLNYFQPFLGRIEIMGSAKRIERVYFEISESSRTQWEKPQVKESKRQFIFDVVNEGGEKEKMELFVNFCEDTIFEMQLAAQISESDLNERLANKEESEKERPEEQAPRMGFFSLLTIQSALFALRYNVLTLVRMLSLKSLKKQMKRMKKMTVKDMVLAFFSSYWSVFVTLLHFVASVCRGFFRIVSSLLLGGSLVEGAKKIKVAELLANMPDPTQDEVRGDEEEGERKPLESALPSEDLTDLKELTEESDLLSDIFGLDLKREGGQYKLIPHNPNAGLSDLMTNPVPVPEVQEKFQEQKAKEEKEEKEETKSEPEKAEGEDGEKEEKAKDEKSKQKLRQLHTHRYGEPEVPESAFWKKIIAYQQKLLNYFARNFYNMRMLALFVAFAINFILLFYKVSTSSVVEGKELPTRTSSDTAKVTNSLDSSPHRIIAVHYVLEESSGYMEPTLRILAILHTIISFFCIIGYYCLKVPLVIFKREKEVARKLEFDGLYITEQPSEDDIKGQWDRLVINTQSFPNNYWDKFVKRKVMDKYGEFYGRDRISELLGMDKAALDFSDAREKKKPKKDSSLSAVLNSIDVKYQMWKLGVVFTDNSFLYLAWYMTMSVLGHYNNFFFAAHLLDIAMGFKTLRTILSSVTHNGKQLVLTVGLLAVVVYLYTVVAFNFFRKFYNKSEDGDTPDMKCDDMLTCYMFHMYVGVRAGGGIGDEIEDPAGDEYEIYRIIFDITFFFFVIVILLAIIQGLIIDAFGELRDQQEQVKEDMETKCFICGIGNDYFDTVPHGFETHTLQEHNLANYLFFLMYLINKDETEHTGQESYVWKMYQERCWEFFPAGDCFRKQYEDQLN

SERCA2a = target: T2, SERCA2a (Mus musculus, UniProt O55143); experiment: NADH-coupled ATPase assay on microsomal membrane vesicles from mouse heart ventricles (mouse SER); type: biochemical; settings: for effect on SERCA2a ATPase activity (in words) / ATPase activity of SERCA2a in mouse SER: 10 μM; for effect on SERCA2a ATPase activity (in words): mouse SER; for ATPase activity of SERCA2a in mouse SER: percentage from the control sample (100%), mean ± SEM; for EC50: kinetic rate of NADH–NAD+ conversion, Figure S10: 200 µM free Ca2+
T2 construct: from tissue; host or cells: adult mouse heart ventricles, microsomal membrane vesicles
Protocol: To this end, we tracked the rate of nicotinamide adenine dinucleotide (NADH) oxidation linked to ATP hydrolysis by observing changes in NADH fluorescence over time. This was done after addition of ATP to solutions containing microsomal membranes enriched with SER vesicles isolated from adult mouse heart ventricles (mouse SER). The NADH fluorescence decrease was recorded on a FlexStation 3 Multimode Microplate Reader. […] We detected the highest increase in ATPase activity (up to 118%), when the vesicles were treated with borate complex 11–13 (Table ). We tested compounds 11–13 in the NADH assay buffer to see whether these compounds could contribute to the rate of NADH fluorescence reduction (Figures S7–S9). No significant deviations were found in the rate of NADH consumption compared to the control sample (0.1 v/v% DMSO).
Isolation of Microsomal Membrane Vesicles from mouse hearts was done according to procedure described earlier. All animal procedures were performed in accordance with national and institutional regulations.
Mouse ventricular microsomes (4–5 μg of total protein) were diluted in 100 μL of the assay buffer used for measurement of SERCA activity (described below) and incubated at room temperature for 10 min prior to the experiments. The measurements of SERCA2 activity were made at 25 °C by using a NADH -coupled ATPase assay as described in Radnai et al. with slight modifications. Briefly, the assay buffer contained 60 mM MOPS, 120 mM KCl, 6 mM MgCl2, 1 mM EGTA, 5 mM NaN3, 0.5 mM phosphoenolpyruvate and 0.67 mM CaCl2, pH 7.0. Before the reaction was started by the injection of 10 μL ATP (resulting in 2 mM final concentration in the well), 5 units/mL of both lactate dehydrogenase and pyruvate kinase, 0.5 mM NADH, and 1 μM Ca^2+ ionophore A-23187 (Sigma, C-7522) were added to the diluted sample with or without the tested compound (volume −150 μL). […] The NADH fluorescence decrease was recorded each 2 s for 5 min course on a FlexStation 3 Multi-Mode Microplate Reader in 96-well glass bottom plates (MatTek Corporation; Cat. No. PBK96G-1.5-5-F). Fluorescence was evoked by 380 nm excitation wavelength and collected in a bottom-read mode at 425 nm, cutoff–470 nm, 4 flashes per read. ATP was injected at 60 s, speed–125 μL/s, pipet height–140 μL. The data were analyzed with computer software GraphPad Prism version 8.3.1 (GraphPad Software, Inc.). The difference in signal decrease with and without microsomes was taken as an indicator for the additional ATPase activity performed by SERCA2. The obtained values for maximal SERCA2 activity were normalized for total protein concentration. Maximal SERCA2 activity values are reported as percentages of control (0.1% DMSO) values. Microsomal samples that were kept on ice until usage and set to 100%.

[1] = PermeaPad membrane permeability; type: in vitro ADME; settings: not told, room temperature, class low/medium in parentheses, read-out: P e (permeability rate)
From the text: We determined permeability rates (P e ), which are a measure of how fast a compound can cross a membrane, using cell-free transport models (PermeaPad, innoME GmbH) The CA derivatives have medium to low permeability rates in the range 1.0–24.0 nm/s (Table ). Similar to S36, despite poor permeability, compounds 2–4, 8, and 9 acted on live RyR2-HEK-293 R-CEPIA1er cells inhibiting RyR2. […] Since PermeaPad is an artificial model that primarily reflects passive diffusion, it is likely that additional mechanisms contribute to the crossing of cell membranes by these compounds.
Membrane permeability was assessed using PermeaPad Plate according to the manufacturing procedure (innoME GmbH, Espelkamp, Germany). Briefly, 200 μL (V A) water was added into acceptor plate. 200 μL (V D) of 100–500 μM test compound in water was added directly to the well membranes of the donor plate. The donor plate contains a biomimetic membrane for simulating passive mass transfer through different barriers in the body. Then the donor plate was placed into the acceptor plate wells and incubated at room temperature for 24 h in dark. To determine peak absorbance of test compounds, absorbance spectra of acceptor solutions and initial solutions for each test compound were read out. The Permeability Rate (P e) was calculated using the formula:
P e = C × −ln (1 – ODA/ODB) cm/s, where OD A is the absorbance of acceptor solution, OD B is the absorbance of the standard solution; if the compound is able to permeabilize the membrane and fully reach equilibrium, 250 μM will be the final concentration of solution in the donor and acceptor wells. The coefficient C was calculated using the formula: C=VD×VA/(VD+VA)×Area×time where V A–acceptor volume (cm^3), V D–donor volume (cm^3), membrane area 0.24 cm^2, time is 86,400 s.

SERCA2 = SERCA2 (Mus musculus, UniProt O55143); experiment: Caffeine induced calcium release assay on live HL-1 cardiomyocytes; type: cell-based; settings: for activation of SERCA2 in HL-1: 10 μM, percentage from the control sample (100%), mean ± SEM; for EC50: 2 h preincubation, 10 mM caffeine, read-out: activation of SERCA2 in HL-1, EC50 (converted);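 for all read-outs here: Read-out: caffeine-evoked peak minus basal fluorescence (ΔF Caff) of cytoplasmic FLIPR Calcium 6 dye, recorded for 1 min, compared with Tyrode's solution plus 0.1 v/v% DMSO as control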
human NaV1.5 = human NaV1.5 (Homo sapiens, UniProt Q14524); experiment: FLIPR membrane potential assay on CHO NaV1.5 Duo cells (veratridine-induced); type: cell-based; settings: for NaV1.5 activity in CHO cells: 10 μM, percentage from the control sample (100%), mean ± SEM; for effect on NaV1.5 activity (in words): concentration range 0.1 to 100 μM

SMILES | effect on RyR2 activity / [Ca2+]ER (in words) (wild type mouse RyR2) | RyR2 activity (wild type mouse RyR2) | effect on SERCA2a ATPase activity (in words) (SERCA2a) | ATPase activity of SERCA2a in mouse SER (SERCA2a) | Papp at 24 h [1] | activation of SERCA2 in HL-1 (SERCA2) | EC50 (SERCA2; HL-1 cells) | NaV1.5 activity in CHO cells (human NaV1.5) | effect on NaV1.5 (in words) (human NaV1.5; 100 μM) | EC50 (SERCA2a) | concentration of maximal inhibition (human NaV1.5; positive control) | effect in caffeine-induced Ca2+ release assay relative to CDN1163 (SERCA2; HL-1 cardiomyocytes) | increase in the signaling response to caffeine stimulation compared to the control sample (SERCA2; HL-1 cells, maximal effect of the dose-response) | effect on NaV1.5 (in words) (human NaV1.5; 1 μM) | effect on NaV1.5 (in words) (human NaV1.5; 10–100 μM) | effect on NaV1.5 activity (in words) (human NaV1.5)
COc1ccc2c(c1)CN(CCCCNC(=O)C(=O)NCCCCCCNC(=O)/C=C/c1ccc(O)c(O)c1)CCS2 [Compound 4] | significantly increased [Ca^2+]ER | 102.2 ± 0.6% | significant activation of SERCA2a ATPase | 110.8 ± 4.5% | 2.7 ×10⁻⁶ cm/s | 140.3 ± 6.4% | 1.4 µM | 108.0 ± 1.6% | small but significant activating effect |  |  |  |  |  |  | 
COc1ccc2c(c1)CN(CCCCCC[NH+]([BH2-]C#N)C/C=C/c1ccc(O)c(O)c1)CCS2 (stereo not shown) [Compound 12] | significantly increased [Ca^2+]ER | 103.9 ± 0.8% |  | 118.2 ± 2.5% | 0.4 ×10⁻⁶ cm/s | 277.8 ± 12.7% | 1.1 µM | 86.2 ± 2.6% |  | 0.0023 µM |  |  |  |  |  | 
CCCCNc1ccc(C(=O)OCCN(C)C)cc1 [tetracaine, reference compound] |  |  |  |  |  |  |  |  |  |  | 100 µM |  |  |  |  | 
COc1ccc2c(c1)CN(CCCC[NH+]([BH2-]C#N)C/C=C/c1ccc(O)c(O)c1)CCS2 (stereo not shown) [Compound 11] | did not affect the RyR2 activity | 100.8 ± 0.7% |  | 115.7 ± 4.0% | 2.6 ×10⁻⁶ cm/s | 267.3 ± 11.7% | 13.6 µM | 83.8 ± 1.7% |  | 0.03 µM and 0.0296 µM |  | 2.5 fold | up to 450% |  |  | 
COc1ccc2c(c1)CN(CCCCCCNC(=O)/C=C/c1ccc(O)c(O)c1)CCO2 [Compound 8] | RyR2 activators | 95.0 ± 1.2% |  | 110.5 ± 3.5% | 1.1 ×10⁻⁶ cm/s | 158.1 ± 2.4% | 7.6 µM | 96.6 ± 3.6% |  |  |  |  |  |  |  | 
COc1ccc2c(c1)CN(C/C=C/C(=O)NNC(=O)/C=C/c1ccc(O)c(O)c1)CCS2 [Compound 3, (E)-N′-((E)-3-(3,4-Dihydroxyphenyl)acryloyl)-4-(7-methoxy-2,3-dihydrobenzo[1,4-f]thiazepin-4(5H)-yl)but-2-enehydrazide] | significantly increased [Ca^2+]ER | 101.7 ± 0.3% | did not evoke a significant increase in ATPase activity | 100.6 ± 2.5% | 3.4 ×10⁻⁶ cm/s | 135.4 ± 3.8% | > 3 µM | 94.8 ± 2.1% |  |  |  |  |  |  |  | 
COc1ccc2c(c1)CN(CCCCCCCCNC(=O)/C=C/c1ccc(O)c(O)c1)CCS2 [Compound 7] |  | 100.1 ± 1.7% |  | 109.8 ± 2.9% | 0.9 ×10⁻⁶ cm/s | 175.3 ± 7.2% | 1.9 µM | 87.4 ± 1.1% |  |  |  |  |  | activating effect | inhibitory effect | bell-shaped behavior
COc1ccc2c(c1)CN(CCCCCCCCNC/C=C/c1ccc(O)c(O)c1)CCO2 [Compound 10] | significantly increased [Ca^2+]ER | 102.1 ± 0.4% |  | 112.3 ± 4.6% | 0.2 ×10⁻⁶ cm/s | 126.4 ± 13.0% | 47.6 µM | 103.0 ± 1.4% |  |  |  |  |  |  |  | no effect on NaV1.5
O=C(O)C=Cc1ccc(O)c(O)c1 [CA, 3-(3,4-dihydroxyphenyl)-2-propenoic acid, reference compound] | did not affect the RyR2 activity | 100.9 ± 0.8% | accelerated consumption of NADH | 108.5 ± 2.5% |  |  |  | 91.8 ± 2.4% |  |  |  |  |  |  |  | no effect on NaV1.5 activity
Cc1ccc2cccc(NC(=O)c3ccc(OC(C)C)cc3)c2n1 [CDN1163, reference compound] |  |  |  |  |  |  | 21 µM and 21.2 µM |  | comparable to the maximal effect of tetracaine |  |  |  |  |  |  | blocked NaV1.5
COc1ccc2c(c1)CN(CCCCCCNC(=O)/C=C/c1ccc(O)c(O)c1)CCS2 [Compound 6] | did not affect the RyR2 activity | 99.4 ± 0.4% |  | 112.3 ± 3.5% | 0.9 ×10⁻⁶ cm/s | 235.4 ± 8.5% | 3.1 µM | 88.8 ± 0.9% |  |  |  |  |  |  |  | 
COc1ccc(SCCCNC(=O)/C=C/c2ccc(O)c(O)c2)cc1 [Compound 2, (E)-3-(3,4-Dihydroxyphenyl)-N-(3-((4-methoxyphenyl)thio)propyl)acrylamide] | RyR2 activators | 96.5 ± 0.4% | significant activation of SERCA2a ATPase | 109.2 ± 3.6% | < 1 ×10⁻⁶ cm/s | 161.5 ± 9.5% | 11 µM | 89.7 ± 1.1% |  |  |  |  |  |  |  | 
O=C1CN(/N=C/c2ccc(-c3ccc([N+](=O)[O-])cc3)o2)C(O)=N1 [dantrolene, reference compound] | increase in R-CEPIA1er fluorescence |  |  |  |  |  |  |  |  |  |  |  |  |  |  | 
